Assay results from PubChem BioAssay AID1963959 (Molecular Pharmacology Branch, DTP, NCI, 2024).

Tested on: T-47D spheroids with HUVEC/MSC, viability
Assay: Anticancer human tumor T-47D cell line growth inhibition [PI3K];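 note: spheroids exposed to agents for seven days before reading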;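 for viability, T/C: percent of DMSO vehicle control luminescence so 100% = untreated growth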
Conditions: for viability, T/C: stronger effect = lower value
How it was run: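 We assembled tumor spheroids that included a stromal compartment of HUVEC and MSCs, then exposed them to targeted agents alone and together with PI3K pathway inhibitors. Concentration series descended by half-log from clinically achievable Cmax levels. Viability served as the endpoint.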

[1] = curve of first compound, second compound 0.0316 µM
[2] = curve of first compound, second compound 0.1 µM
[3] = curve of first compound, second compound 0.316 µM
[4] = curve of first compound, second compound 1 µM
[5] = curve of first compound, second compound 3.16 µM
[6] = curve of first compound, second compound 10 µM
[7] = second compound 0.0316 µM, first compound 0.0316 µM
[8] = second compound 0.0316 µM, first compound 0.1 µM
[9] = second compound 0.0316 µM, first compound 0.316 µM
[10] = second compound 0.0316 µM, first compound 1 µM
[11] = second compound 0.0316 µM, first compound 3.16 µM
[12] = second compound 0.0316 µM, first compound 10 µM
[13] = second compound 0.1 µM, first compound 0.0316 µM
[14] = second compound 0.1 µM, first compound 0.1 µM
[15] = second compound 0.1 µM, first compound 0.316 µM
[16] = second compound 0.1 µM, first compound 1 µM
[17] = second compound 0.1 µM, first compound 3.16 µM
[18] = second compound 0.1 µM, first compound 10 µM
[19] = second compound 0.316 µM, first compound 0.0316 µM
[20] = second compound 0.316 µM, first compound 0.1 µM
[21] = second compound 0.316 µM, first compound 0.316 µM
[22] = second compound 0.316 µM, first compound 1 µM
[23] = second compound 0.316 µM, first compound 3.16 µM
[24] = second compound 0.316 µM, first compound 10 µM
[25] = second compound 1 µM, first compound 0.0316 µM
[26] = second compound 1 µM, first compound 0.1 µM
[27] = second compound 1 µM, first compound 0.316 µM
[28] = second compound 1 µM, first compound 1 µM
[29] = second compound 1 µM, first compound 3.16 µM
[30] = second compound 1 µM, first compound 10 µM
[31] = second compound 3.16 µM, first compound 0.0316 µM
[32] = second compound 3.16 µM, first compound 0.1 µM
[33] = second compound 3.16 µM, first compound 0.316 µM
[34] = second compound 3.16 µM, first compound 1 µM
[35] = second compound 3.16 µM, first compound 3.16 µM
[36] = second compound 3.16 µM, first compound 10 µM
[37] = second compound 10 µM, first compound 0.0316 µM
[38] = second compound 10 µM, first compound 0.1 µM
[39] = second compound 10 µM, first compound 0.316 µM
[40] = second compound 10 µM, first compound 1 µM
[41] = second compound 10 µM, first compound 3.16 µM
[42] = second compound 10 µM, first compound 10 µM

## CCCS(=O)(=O)Nc1ccc(F)c(C(=O)c2c[nH]c3ncc(-c4ccc(Cl)cc4)cc23)c1F + CC(Nc1ncnc2nc[nH]c12)c1cc2cccc(Cl)c2c(=O)n1-c1ccccc1
[1]
  IC50: > 10 µM
[2]
  IC50: > 10 µM
[3]
  IC50: 8.46 µM
[4]
  IC50: > 10 µM
[5]
  IC50: 9.93 µM
[6]
  IC50: 9.51 µM
[7]
  viability, T/C: 114%
[8]
  viability, T/C: 98.7%
[9]
  viability, T/C: 84.7%
[10]
  viability, T/C: 98.4%
[11]
  viability, T/C: 88.6%
[12]
  viability, T/C: 53%
[13]
  viability, T/C: 84.5%
[14]
  viability, T/C: 96.1%
[15]
  viability, T/C: 105%
[16]
  viability, T/C: 84.8%
[17]
  viability, T/C: 104%
[18]
  viability, T/C: 52.1%
[19]
  viability, T/C: 107%
[20]
  viability, T/C: 87.7%
[21]
  viability, T/C: 109%
[22]
  viability, T/C: 83.8%
[23]
  viability, T/C: 92%
[24]
  viability, T/C: 42.9%
[25]
  viability, T/C: 97.2%
[26]
  viability, T/C: 106%
[27]
  viability, T/C: 89.2%
[28]
  viability, T/C: 112%
[29]
  viability, T/C: 85.6%
[30]
  viability, T/C: 50.3%
[31]
  viability, T/C: 85.5%
[32]
  viability, T/C: 104%
[33]
  viability, T/C: 73.6%
[34]
  viability, T/C: 84.8%
[35]
  viability, T/C: 85.3%
[36]
  viability, T/C: 49.8%
[37]
  viability, T/C: 84.7%
[38]
  viability, T/C: 82.8%
[39]
  viability, T/C: 92.2%
[40]
  viability, T/C: 72.7%
[41]
  viability, T/C: 74.7%
[42]
  viability, T/C: 48.2%

## Cn1ncnc1[C@H]1c2n[nH]c(=O)c3cc(F)cc(c23)N[C@@H]1c1ccc(F)cc1 + CC(Nc1ccc2c(c1)OCCn1cc(N3C(=O)OCC3C(F)F)nc1-2)C(N)=O
Curve of first compound, second compound 0.00316 µM
  IC50: > 0.1 µM
Curve of first compound, second compound 0.01 µM
  IC50: > 0.1 µM
[1]
  IC50: > 0.1 µM
[2]
  IC50: > 0.1 µM
[3]
  IC50: > 0.1 µM
[4]
  IC50: > 0.1 µM
Second compound 0.00316 µM, first compound 0.000316 µM
  viability, T/C: 88.8%
Second compound 0.00316 µM, first compound 0.001 µM
  viability, T/C: 82.8%
Second compound 0.00316 µM, first compound 0.00316 µM
  viability, T/C: 109%
Second compound 0.00316 µM, first compound 0.01 µM
  viability, T/C: 86.9%
Second compound 0.00316 µM, first compound 0.0316 µM
  viability, T/C: 96.3%
Second compound 0.00316 µM, first compound 0.1 µM
  viability, T/C: 112%
Second compound 0.01 µM, first compound 0.000316 µM
  viability, T/C: 113%
Second compound 0.01 µM, first compound 0.001 µM
  viability, T/C: 78.7%
Second compound 0.01 µM, first compound 0.00316 µM
  viability, T/C: 80.3%
Second compound 0.01 µM, first compound 0.01 µM
  viability, T/C: 96.2%
Second compound 0.01 µM, first compound 0.0316 µM
  viability, T/C: 91.3%
Second compound 0.01 µM, first compound 0.1 µM
  viability, T/C: 89.4%
Second compound 0.0316 µM, first compound 0.000316 µM
  viability, T/C: 108%
Second compound 0.0316 µM, first compound 0.001 µM
  viability, T/C: 74.7%
Second compound 0.0316 µM, first compound 0.00316 µM
  viability, T/C: 88.8%
Second compound 0.0316 µM, first compound 0.01 µM
  viability, T/C: 85%
[7]
  viability, T/C: 81.2%
[8]
  viability, T/C: 75.8%
Second compound 0.1 µM, first compound 0.000316 µM
  viability, T/C: 79.2%
Second compound 0.1 µM, first compound 0.001 µM
  viability, T/C: 76.7%
Second compound 0.1 µM, first compound 0.00316 µM
  viability, T/C: 78.3%
Second compound 0.1 µM, first compound 0.01 µM
  viability, T/C: 81.6%
[13]
  viability, T/C: 86.5%
[14]
  viability, T/C: 76.2%
Second compound 0.316 µM, first compound 0.000316 µM
  viability, T/C: 77.1%
Second compound 0.316 µM, first compound 0.001 µM
  viability, T/C: 80.1%
Second compound 0.316 µM, first compound 0.00316 µM
  viability, T/C: 57.1%
Second compound 0.316 µM, first compound 0.01 µM
  viability, T/C: 65.6%
[19]
  viability, T/C: 62.3%
[20]
  viability, T/C: 61.9%
Second compound 1 µM, first compound 0.000316 µM
  viability, T/C: 61.5%
Second compound 1 µM, first compound 0.001 µM
  viability, T/C: 48.5%
Second compound 1 µM, first compound 0.00316 µM
  viability, T/C: 54.2%
Second compound 1 µM, first compound 0.01 µM
  viability, T/C: 58%
[25]
  viability, T/C: 55.2%
[26]
  viability, T/C: 49.8%

## Cn1ncc(Cl)c1-c1cc(C(=O)NC(CN)Cc2cccc(F)c2)sc1Cl (stereo unspecified) + CC(Nc1ncnc2nc[nH]c12)c1cc2cccc(Cl)c2c(=O)n1-c1ccccc1
[1]
  IC50: > 10 µM
[2]
  IC50: > 10 µM
[3]
  IC50: > 10 µM
[4]
  IC50: > 10 µM
[5]
  IC50: > 10 µM
[6]
  IC50: > 10 µM
[7]
  viability, T/C: 101%
[8]
  viability, T/C: 101%
[9]
  viability, T/C: 84.2%
[10]
  viability, T/C: 76.6%
[11]
  viability, T/C: 64.2%
[12]
  viability, T/C: 66.6%
[13]
  viability, T/C: 100%
[14]
  viability, T/C: 79.2%
[15]
  viability, T/C: 80.2%
[16]
  viability, T/C: 76.9%
[17]
  viability, T/C: 70.8%
[18]
  viability, T/C: 66.6%
[19]
  viability, T/C: 104%
[20]
  viability, T/C: 89.1%
[21]
  viability, T/C: 91.5%
[22]
  viability, T/C: 68.1%
[23]
  viability, T/C: 72.4%
[24]
  viability, T/C: 68.3%
[25]
  viability, T/C: 103%
[26]
  viability, T/C: 94.7%
[27]
  viability, T/C: 81.2%
[28]
  viability, T/C: 67.1%
[29]
  viability, T/C: 58.7%
[30]
  viability, T/C: 74.1%
[31]
  viability, T/C: 82.9%
[32]
  viability, T/C: 99.3%
[33]
  viability, T/C: 79.9%
[34]
  viability, T/C: 57.6%
[35]
  viability, T/C: 72.8%
[36]
  viability, T/C: 69.1%
[37]
  viability, T/C: 97.8%
[38]
  viability, T/C: 92.2%
[39]
  viability, T/C: 77.5%
[40]
  viability, T/C: 68.4%
[41]
  viability, T/C: 66.9%
[42]
  viability, T/C: 71.4%

## CC(=O)c1c(C)c2cnc(Nc3ccc(N4CCNCC4)cn3)nc2n(C2CCCC2)c1=O
Compound 0.000316 µM
  viability, T/C: 94.9% [middle of 4 runs]
Compound 0.001 µM
  viability, T/C: 98% [middle of 4 runs]
Compound 0.0316 µM
  viability, T/C: 96.2% [middle of 4 runs]
Compound 0.1 µM
  viability, T/C: 86.7% [middle of 4 runs]
Curve of compound
  IC50: > 0.1 µM
